These results are taken from US8815503B2, “Compositions and methods for immunostimulatory RNA oligonucleotides” (Rheinische Friedrich-Wilhelms-Universitat Bonn, priority 2005, dated 2014).

One series concerns PBMC. Nature of the series: 193 ssRNA 4mer-motif library screen: IL-12 (IL-12p40) production in PBMC of six donors, poly-L-Arg complexation, ELISA at 44 hours, IL-12 index and adjusted IL-12 index. To be noted: 193 ssRNA oligonucleotide library; data from six individual donors summarized; ascending order. Details: key to Adjusted IL-12 index Mean: IL-12 index (ratio to 9.2sense) minus donor mean, averaged over 6 donors. It is filed as cell-based, human. As for the experimental part:
FIG. 9: PBMC of six different healthy donors were isolated and stimulated with poly-L-arginine complexed ssRNA oligonucleotides in duplicates. 44 hours after stimulation IL-12p40 production was assessed in supernatant via ELISA. For all tested ssRNA oligonucleotides (table 3), the mean values of the measured duplicates were normalized to the positive control ssRNA oligonucleotide 9.2sense (5′-AGCUUAACCUGUCCUUCAA (SEQ ID NO: 194)) by dividing the mean value of tested oligonucleotide by the mean value of 9.2sense (=IL-12 index of a given oligonucleotide). Next, all individual IL-12 indices were adjusted to the mean value of all IL-12 indices by subtracting the mean value of all IL-12 indices from the individual IL-12 index of a given oligonucleotide (=adjusted IL-12 index). Data from six individual donors were summarized and were assorted in ascending order displaying the corresponding SEM (for a complete listing including numerical data see table 4). FIG. 9A discloses SEQ ID NOS 460-509, respectively, in order of appearance. FIG. 9B discloses SEQ ID NOS 510-559, respectively, in order of appearance. FIG. 9C discloses SEQ ID NOS 560-609, respectively, in order of appearance. FIG. 9D discloses SEQ ID NOS 610-652, respectively, in order of appearance.
All 193 ssRNA oligonucleotides were tested on PBMC of six individual healthy donors using poly-L-Arg for complexation. At 44 hours after stimulation with RNA oligonucleotides, supernatants were collected and IL-12 production was measured by ELISA. Prior to statistical analysis the raw data were processed as follows: for each cell culture plate the mean IL-12 value of the experimental duplicates for each tested ssRNA oligonucleotide were normalized to the ssRNA oligonucleotide RNA9.2sense (5′-AGCUUAACCUGUCCUUCAA-3′ (SEQ ID NO: 194)). This standard RNA oligonucleotide was included as a positive control on all cell culture plates. Normalization was performed by calculating the ratio of IL-12 induced by the tested oligonucleotide and IL-12 induced by the standard oligonucleotide RNA9.2sense. Thus, for each tested oligonucleotide in an individual donor a mean ratio of IL-12 induction was obtained. In the following, this mean of the ratios is referred to as IL-12 index (one value of IL-12 index per donor). […] The corresponding IL-12 index of oligonucleotide ANP175 for donor 3 was calculated to be 1.90 (=1725 pg/ml divided by 908 pg/ml).
Next, the means of all IL-12 indices for every individual donor were calculated. Then the adjusted IL-12 indices were calculated as IL-12 index minus the mean of all IL-12 indices of one individual donor. […] The adjusted IL-12 index of ANP175 was calculated: 1.90 minus 0.44=1.46. The adjusted IL-12 indices from all six donors were summarized by calculating the means and the corresponding standard error of mean. The data are depicted in ascending order (FIG. 9A, B, C, D). The adjusted IL-12 indices of the top thirty ssRNA oligonucleotides of all six donors were compared using a two-tailed Student's t-test (FIG. 10). For most combinations tested, a significant difference was observed when the interval between the analyzed pairs was at least eight or nine places in the assortment.
Background: An ELISA detects its analyte on a solid surface through an enzyme-linked reagent.
Turning to “AAAAAAAAUGUAAAAAAAA (RNA, backbone not given here) [ANP-Oligo 046]”, the “Adjusted IL-12 index Mean” value is 0.97.
On the same count and under the same terms, in the case of “AAAAAAAUCGGAAAAAAAA (RNA, backbone not given here) [ANP-Oligo 165]” it was −0.26; in that of “AAAAAAAUCAGAAAAAAAA (RNA, backbone not given here) [ANP-Oligo 159]”, −0.28; in that of “AAAAAAACGGGAAAAAAAA (RNA, backbone not given here) [ANP-Oligo 081]”, −0.63.
For the substance “AAAAAAAGGGGAAAAAAAA (RNA, backbone not given here) [ANP-Oligo 129]”, the “Adjusted IL-12 index Mean” value is listed as −0.51.
On to “AAAAAAAUCUCAAAAAAAA (RNA, backbone not given here) [ANP-Oligo 167]”, for which the “Adjusted IL-12 index Mean” value was found to be 0.37.
On the same count and under the same terms, for “AAAAAAACUAGAAAAAAAA (RNA, backbone not given here) [ANP-Oligo 087]” the value was −0.03; for “AAAAAAACCUUAAAAAAAA (RNA, backbone not given here) [ANP-Oligo 073]”, −0.28; for “AAAAAAAAGGGAAAAAAAA (RNA, backbone not given here) [ANP-Oligo 033]”, −0.59.
Consider “AAAAAAAAAAAAAAAAAAA (RNA, backbone not given here) [ANP-Oligo 001]”, for which the “Adjusted IL-12 index Mean” value is reported as −0.48.
Same read-out and setting: in the case of “AAAAAAAUGAUAAAAAAAA (RNA, backbone not given here) [ANP-Oligo 172]” it was 1.92; in that of “AAAAAAAGAAGAAAAAAAA (RNA, backbone not given here) [ANP-Oligo 099]”, −0.61; in that of “AAAAAAAGGUGAAAAAAAA (RNA, backbone not given here) [ANP-Oligo 132]”, 0.47.
With “AAAAAAAGCUGAAAAAAAA (RNA, backbone not given here) [ANP-Oligo 120]”, the “Adjusted IL-12 index Mean” value is −0.38.
Consider “AAAAAAAAUCAAAAAAAAA (RNA, backbone not given here) [ANP-Oligo 011]”, for which the “Adjusted IL-12 index Mean” value is on record as −0.43.
On to “AAAAAAACCGCAAAAA4AA (DNA AAAAAAACCGCAAAAAAAA; RNA, backbone not given here) [ANP-Oligo 068]”, for which the “Adjusted IL-12 index Mean” value is reported as −0.56.
Turning to “AAAAAAAAGCUAAAAAAAA (RNA, backbone not given here) [ANP-Oligo 031]”, the “Adjusted IL-12 index Mean” value was −0.32.
Turning to “AAAAAAACUGUAAAAAAAA (RNA, backbone not given here) [ANP-Oligo 094]”, the “Adjusted IL-12 index Mean” value is listed as 0.9.
As to “AAAAAAAAUUUAAAAAAAA (RNA, backbone not given here) [ANP-Oligo 049]”, the “Adjusted IL-12 index Mean” value is given as −0.07.
On the same count and under the same terms, for “AAAAAAAGCACAAAAAAAA (RNA, backbone not given here) [ANP-Oligo 110]” the value was −0.58.
As to “AAAAAAAACAAAAAAAAAA (RNA, backbone not given here) [ANP-Oligo 002]”, the “Adjusted IL-12 index Mean” value is recorded as −0.57.
Still for that read-out and setting: for “AAAAAAAUGGUAAAAAAAA (RNA, backbone not given here) [ANP-Oligo 178]” the value was 3.26; for “AAAAAAACCAUAAAAAAAA (RNA, backbone not given here) [ANP-Oligo 064]”, −0.38; for “AAAAAAAGCCCAAAAAAAA (RNA, backbone not given here) [ANP-Oligo 113]”, −0.54.
Same read-out and setting: in the case of “AAAAAAACGACAAAAAAAA (RNA, backbone not given here) [ANP-Oligo 074]” it was −0.6; in that of “AAAAAAAUCGCAAAAAAAA (RNA, backbone not given here) [ANP-Oligo 164]”, −0.1; in that of “AAAAAAAGUCGAAAAAAAA (RNA, backbone not given here) [ANP-Oligo 138]”, 0.02.
Consider “AAAAAAAGCCGAAAAAAAA (RNA, backbone not given here) [ANP-Oligo 114]”, for which the “Adjusted IL-12 index Mean” value is listed as −0.58.
On the same count and under the same terms, in the case of “AAAAAAAUAAUAAAAAAAA (RNA, backbone not given here) [ANP-Oligo 148]” it was 0.7; in that of “AAAAAAAAUGGAAAAAAAA (RNA, backbone not given here) [ANP-Oligo 045]”, −0.29; in that of “AAAAAAAAGGCAAAAAAAA (RNA, backbone not given here) [ANP-Oligo 032]”, −0.62.
On the same count and under the same terms, for “AAAAAAAGCUUAAAAAAAA (RNA, backbone not given here) [ANP-Oligo 121]” the value was 0.24; for “AAAAAAAUAGGAAAAAAAA (RNA, backbone not given here) [ANP-Oligo 153]”, 0.42; for “AAAAAAAGGACAAAAAAAA (RNA, backbone not given here) [ANP-Oligo 122]”, −0.43.
For “AAAAAAAUAACAAAAAAAA (RNA, backbone not given here) [ANP-Oligo 146]”, the “Adjusted IL-12 index Mean” value is −0.16.
The same measure, in the same setting: in the case of “AAAAAAAGUUCAAAAAAAA (RNA, backbone not given here) [ANP-Oligo 143]” it was 0.56.
Regarding “AAAAAAACAGCAAAAAAAA (RNA, backbone not given here) [ANP-Oligo 056]”, the “Adjusted IL-12 index Mean” value is given as −0.54.
With “AAAAAAAUAUGAAAAAAAA (RNA, backbone not given here) [ANP-Oligo 156]”, the “Adjusted IL-12 index Mean” value is reported as 0.27.
Same read-out and setting: for “AAAAAAAACCCAAAAAAAA (RNA, backbone not given here) [ANP-Oligo 017]” the value was −0.66; for “AAAAAAACCCGAAAAAAAA (RNA, backbone not given here) [ANP-Oligo 066]”, −0.62; for “AAAAAAACCUCAAAAAAAA (RNA, backbone not given here) [ANP-Oligo 071]”, −0.56.
Still for that read-out and setting: for “AAAAAAAGUCCAAAAAAAA (RNA, backbone not given here) [ANP-Oligo 137]” the value was −0.27; for “AAAAAAACACUAAAAAAAA (RNA, backbone not given here) [ANP-Oligo 055]”, −0.53.
“AAAAAAAUGACAAAAAAAA (RNA, backbone not given here) [ANP-Oligo 170]”: the “Adjusted IL-12 index Mean” value is on record as 0.86.
Turning to “AAAAAAACUUGAAAAAAAA (RNA, backbone not given here) [ANP-Oligo 096]”, the “Adjusted IL-12 index Mean” value is −0.14.
On the same count and under the same terms, for “AAAAAAAUUGGAAAAAAAA (RNA, backbone not given here) [ANP-Oligo 189]” the value was 0.66; for “AAAAAAAAGGUAAAAAAAA (RNA, backbone not given here) [ANP-Oligo 034]”, 2.21.
On the same count and under the same terms, in the case of “AAAAAAAUAUCAAAAAAAA (RNA, backbone not given here) [ANP-Oligo 155]” it was 0.33.

The series is the same for the next values; noted with them: summarized from all six donors.
With “AAAAAAAUGGUAAAAAAAA (RNA, backbone not given here) [ANP-Oligo 178]”, the “adjusted IL-12 index” value was found to be 3.26.
